In article PMC5343027, “Crystal Structure of the Chloroplastic Oxoene Reductase ceQORH from Arabidopsis thaliana” (Frontiers in Plant Science, 2017):

What was measured:
[1] = molecular target: T1, ceQORH (chloroplast envelope quinone oxidoreductase homolog) (Arabidopsis thaliana, UniProt Q9SV68); assay: X-ray crystal structures, […] Å (binary) and […] Å (ternary with NADP+); assay type: binding
T1 sequence (Q9SV68 1-329): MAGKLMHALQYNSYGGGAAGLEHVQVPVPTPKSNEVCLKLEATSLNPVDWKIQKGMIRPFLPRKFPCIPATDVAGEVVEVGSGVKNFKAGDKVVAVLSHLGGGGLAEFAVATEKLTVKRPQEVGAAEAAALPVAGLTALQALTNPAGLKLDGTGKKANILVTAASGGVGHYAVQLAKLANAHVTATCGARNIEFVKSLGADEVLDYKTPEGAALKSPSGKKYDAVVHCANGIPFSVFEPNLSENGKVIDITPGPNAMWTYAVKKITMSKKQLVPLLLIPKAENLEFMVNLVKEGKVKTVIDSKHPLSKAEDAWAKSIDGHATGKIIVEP

[2] = molecular target: T1, ceQORH (chloroplast envelope quinone oxidoreductase homolog); assay: enzyme inhibition kinetics ([…] nm) after […] s preincubation, […] trans-1, […] diphenyl-2-propenone; low-quality crystal structure with NADPH not used; assay type: biochemical
[3] = molecular target: T1, ceQORH (chloroplast envelope quinone oxidoreductase homolog); assay: X-ray crystal structure, […] Å, ternary complex with 13-KOTE; assay type: binding

CC/C=C\CC(=O)/C=C/C=C/CCCCCCCC(=O)O [13-KOTE, 13-oxo-9(Z), 11(E), 15(Z)-octadecatrienoic acid]
X-ray crystal structures, 2.78 Å (binary) and 2.81 Å (ternary with NADP+) [1]: apo-ceQORH (5A3V), ceQORH-13-KOTE (5A3J), and ceQORH-NADP^+-13-KOTE (5A4D)

CCCCCC(=O)/C=C/C=C\CCCCCCCC(=O)O [13-KODE, 13-oxo-9(Z),11(E)-octadecadienoic acid]
IC50 [2]: 36 µM

NC(=O)c1ccc[n+]([C@@H]2O[C@H](COP(=O)(O)OP(=O)(O)OC[C@H]3O[C@@H](n4cnc5c(N)ncnc54)[C@H](OP(=O)(O)O)[C@@H]3O)[C@@H](O)[C@H]2O)c1 [NADP^+]
X-ray crystal structure, 2.81 Å, ternary complex with 13-KOTE [3]: NADP^+ is bound at the interface of the two domains and the nicotinamide ring is in the vicinity of the catalytic site
